Measurements taken from the NIST ThermoML archive (doi:10.1016/j.jct.2014.01.028).
Numbers after ± are expanded uncertainties.

Details: for electrical conductivity / viscosity / mass density: 101.33 kPa, Liquid; for electrical conductivity: Alternating current cell with electrodes; for viscosity: Capillary tube (Ostwald / Ubbelohde) method; for mass density: Pycnometric method; for Glass transition temperature: DTA

| electrical conductivity (293.15 K) | viscosity (293.15 K) | mass density (293.15 K) | electrical conductivity (303.15 K) | viscosity (303.15 K) | mass density (303.15 K) | electrical conductivity (313.15 K) | viscosity (313.15 K) | mass density (313.15 K) | electrical conductivity (323.15 K) | viscosity (323.15 K) | mass density (323.15 K) | electrical conductivity (333.15 K) | viscosity (333.15 K) | mass density (333.15 K) | electrical conductivity (343.15 K) | viscosity (343.15 K) | mass density (343.15 K) | Glass transition temperature | SMILES |
| --- | --- | --- | --- | --- | --- | --- | --- | --- | --- | --- | --- | --- | --- | --- | --- | --- | --- | --- | --- |
| 0.27 ± 0.0086 S/m | 191.8 ± 8.1 mPa·s | 1113.5 ± 3.3 kg/m3 | 0.487 ± 0.015 S/m | 87.9 ± 3.5 mPa·s | 1106.7 ± 3.3 kg/m3 | 0.804 ± 0.026 S/m | 42.4 ± 1.6 mPa·s | 1100.3 ± 3.3 kg/m3 | 1.24 ± 0.039 S/m | 22.9 ± 0.9 mPa·s | 1092.5 ± 3.3 kg/m3 | 1.69 ± 0.054 S/m | 14.8 ± 0.5 mPa·s | 1086.3 ± 3.3 kg/m3 | 2.11 ± 0.067 S/m | 8.6 ± 0.3 mPa·s | 1079.7 ± 3.3 kg/m3 | -60.01 ± 2 °C | CCn1cc[n+](C)c1.c1c[n-]cn1 [1-ethyl-3-methylimidazolium imidazolide] |
| 0.0737 ± 0.0023 S/m | 533.3 ± 28 mPa·s | 1085.3 ± 3.2 kg/m3 | 0.15 ± 0.0048 S/m | 272.6 ± 13 mPa·s | 1079.9 ± 3.2 kg/m3 | 0.284 ± 0.009 S/m | 140 ± 6 mPa·s | 1073.2 ± 3.2 kg/m3 | 0.481 ± 0.015 S/m | 76.8 ± 2.9 mPa·s | 1066.5 ± 3.2 kg/m3 | 0.713 ± 0.023 S/m | 47.5 ± 1.7 mPa·s | 1060.4 ± 3.2 kg/m3 | 1.01 ± 0.032 S/m | 34 ± 1.2 mPa·s | 1054.1 ± 3.2 kg/m3 | -56.01 ± 2 °C | CCCCn1cc[n+](C)c1.c1c[n-]cn1 [1-butyl-3-methylimidazolium imidazolide] |
| 0.000168 ± 5e-06 S/m |  | 1301 ± 4.5 kg/m3 | 0.000636 ± 2e-05 S/m | 8896 ± 790 mPa·s | 1295.7 ± 4.5 kg/m3 | 0.00229 ± 7e-05 S/m | 3632 ± 280 mPa·s | 1289.8 ± 4.5 kg/m3 | 0.00646 ± 0.00021 S/m | 1255 ± 82 mPa·s | 1283.7 ± 4.5 kg/m3 | 0.0174 ± 0.00055 S/m | 615.2 ± 34 mPa·s | 1278.1 ± 4.5 kg/m3 | 0.0391 ± 0.0013 S/m | 290.4 ± 14 mPa·s | 1272.3 ± 4.4 kg/m3 | -54.01 ± 2 °C | C[n+]1ccn(CCO)c1.c1c[n-]cn1 [1-(2-hydroxyethyl)-3-methylimidazolium imidazolide] |

The remaining lines, values behind:

| SMILES | electrical conductivity (293.15 K) | viscosity (293.15 K) | mass density (293.15 K) | electrical conductivity (303.15 K) | viscosity (303.15 K) | mass density (303.15 K) | electrical conductivity (313.15 K) | viscosity (313.15 K) | mass density (313.15 K) | electrical conductivity (323.15 K) | viscosity (323.15 K) | mass density (323.15 K) | electrical conductivity (333.15 K) | viscosity (333.15 K) | mass density (333.15 K) | electrical conductivity (343.15 K) | viscosity (343.15 K) | mass density (343.15 K) | Glass transition temperature |
| --- | --- | --- | --- | --- | --- | --- | --- | --- | --- | --- | --- | --- | --- | --- | --- | --- | --- | --- | --- |
| C[n+]1ccn(CCCN)c1.c1c[n-]cn1 [1-(3-aminopropyl)-3-methylimidazolium imidazolide] | 0.0842 ± 0.0027 S/m | 220 ± 9.6 mPa·s | 1148.4 ± 3.5 kg/m3 | 0.166 ± 0.0053 S/m | 98.4 ± 4 mPa·s | 1143.1 ± 3.5 kg/m3 | 0.304 ± 0.0097 S/m | 54.5 ± 2 mPa·s | 1137.5 ± 3.5 kg/m3 | 0.504 ± 0.016 S/m | 32.1 ± 1.2 mPa·s | 1131.8 ± 3.5 kg/m3 | 0.738 ± 0.024 S/m | 19.9 ± 0.7 mPa·s | 1126.3 ± 3.5 kg/m3 | 1.09 ± 0.035 S/m | 13.7 ± 0.5 mPa·s | 1120.8 ± 3.5 kg/m3 | -55.02 ± 2 °C |
| C[n+]1ccn(CCn2cc[n+](C)c2)c1.c1c[n-]cn1.c1c[n-]cn1 | 0.0111 ± 0.00035 S/m |  | 1210.8 ± 3.9 kg/m3 | 0.0309 ± 0.00098 S/m | 6306 ± 530 mPa·s | 1206 ± 3.9 kg/m3 | 0.0684 ± 0.0022 S/m | 2538 ± 180 mPa·s | 1200 ± 3.9 kg/m3 | 0.145 ± 0.0046 S/m | 854.7 ± 52 mPa·s | 1191.5 ± 3.9 kg/m3 | 0.254 ± 0.0081 S/m | 440.2 ± 22 mPa·s | 1185.7 ± 3.9 kg/m3 | 0.425 ± 0.013 S/m | 145.1 ± 8.2 mPa·s | 1178.9 ± 3.9 kg/m3 | -56.18 ± 2 °C |
| C[n+]1ccn(CCCCn2cc[n+](C)c2)c1.c1c[n-]cn1.c1c[n-]cn1 | 0.0266 ± 0.0008 S/m |  | 1177.4 ± 3.7 kg/m3 | 0.0686 ± 0.0022 S/m | 3058 ± 220 mPa·s | 1172.8 ± 3.7 kg/m3 | 0.146 ± 0.0047 S/m | 1003 ± 64 mPa·s | 1166.9 ± 3.7 kg/m3 | 0.283 ± 0.009 S/m | 427.1 ± 22 mPa·s | 1158.7 ± 3.7 kg/m3 | 0.498 ± 0.016 S/m | 206.3 ± 9.1 mPa·s | 1154.3 ± 3.7 kg/m3 | 0.955 ± 0.03 S/m | 111.5 ± 4.6 mPa·s | 1148.9 ± 3.7 kg/m3 | -54.34 ± 2 °C |
